Data reported in ChEMBL document CHEMBL3826929, “Discovery and Preclinical Evaluation of BMS-711939, an Oxybenzylglycine Based PPARα Selective Agonist” (ACS Med Chem Lett, 2016).
pEC50, pIC50: −log10 of the molar value.

Tests used:
[1] = biological target: T1, Peroxisome proliferator-activated receptor alpha (Homo sapiens) (UniProt Q07869); assay: Intrinsic activity at PPAR-alpha (unknown origin) relative to fenofibric acid
T1 sequence (whole entry): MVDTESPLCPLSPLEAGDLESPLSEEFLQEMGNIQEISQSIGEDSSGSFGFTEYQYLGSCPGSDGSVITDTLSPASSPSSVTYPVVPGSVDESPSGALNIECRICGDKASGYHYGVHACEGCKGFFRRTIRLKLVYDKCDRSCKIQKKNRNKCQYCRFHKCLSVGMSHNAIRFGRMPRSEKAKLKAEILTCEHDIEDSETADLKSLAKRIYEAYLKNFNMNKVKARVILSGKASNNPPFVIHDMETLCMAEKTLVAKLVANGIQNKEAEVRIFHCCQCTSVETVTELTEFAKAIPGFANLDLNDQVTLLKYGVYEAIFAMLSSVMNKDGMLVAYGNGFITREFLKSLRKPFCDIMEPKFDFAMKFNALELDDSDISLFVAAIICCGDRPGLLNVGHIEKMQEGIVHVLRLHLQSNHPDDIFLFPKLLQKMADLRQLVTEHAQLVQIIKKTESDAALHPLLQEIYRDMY

[2] = biological target: T2, Peroxisome proliferator-activated receptor alpha (Homo sapiens, UniProt Q07869); assay: Agonist activity at Gal4-tagged human PPAR-alpha expressed in HEK cells by transactivation assay; assay type: cell-based, HEK293
T2 sequence (Q07869 whole entry): T1 sequence (whole entry)

[3] = biological target: T3, Peroxisome proliferator-activated receptor gamma (Homo sapiens, UniProt P37231); assay: Agonist activity at Gal4-tagged human PPAR-gamma expressed in HEK cells by transactivation assay; assay type: cell-based, HEK293
T3 sequence (P37231 whole entry): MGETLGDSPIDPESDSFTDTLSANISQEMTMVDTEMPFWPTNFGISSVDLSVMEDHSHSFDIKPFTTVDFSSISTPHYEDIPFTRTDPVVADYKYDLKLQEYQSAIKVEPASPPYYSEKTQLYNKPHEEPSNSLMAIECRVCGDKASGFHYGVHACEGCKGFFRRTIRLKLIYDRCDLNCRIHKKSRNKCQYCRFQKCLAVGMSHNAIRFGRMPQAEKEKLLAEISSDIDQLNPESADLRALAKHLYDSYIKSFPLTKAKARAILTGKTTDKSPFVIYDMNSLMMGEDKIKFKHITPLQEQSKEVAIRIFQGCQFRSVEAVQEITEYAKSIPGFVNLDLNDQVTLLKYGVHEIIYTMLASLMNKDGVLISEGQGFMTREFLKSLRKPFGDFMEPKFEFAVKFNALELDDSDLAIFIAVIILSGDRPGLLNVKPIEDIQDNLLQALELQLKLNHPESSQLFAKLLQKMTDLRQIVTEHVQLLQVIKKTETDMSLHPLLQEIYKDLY

HEK293 = assay: Selectivity ratio of EC50 for Gal4-tagged human PPAR-gamma expressed in HEK cells to EC50 for Gal4-tagged human PPAR-alpha expressed in HEK cells; assay type: cell-based
[4] = biological target: T2, Peroxisome proliferator-activated receptor alpha; assay: Binding affinity to human GST-tagged PPAR-alpha LBD expressed in Escherichia coli BL21 (DE3) PlysS after 30 mins in presence of fluorescein ligand FLA-A by fluorescence polarization assay
[5] = biological target: T3, Peroxisome proliferator-activated receptor gamma; assay: Binding affinity to human GST-tagged PPAR-gamma LBD expressed in Escherichia coli BL21 after 30 mins in presence of fluorescein ligand FLA-A by fluorescence polarization assay
Mus musculus [6] = assay: Increase in ApoA1 level in transgenic mouse expressing human ApoA1 at 100 mg/kg administered qd through oral gavage measured after 10 days relative to vehicle-treated control; assay type: functional
Mus musculus [7] = assay: Decrease in triglyceride level in transgenic mouse expressing human ApoA1 at 100 mg/kg administered qd through oral gavage measured after 10 days relative to vehicle control; assay type: functional; design: scale not given: the % may be the effect or the level left
Mus musculus [8] = assay: Increase in HDL cholesterol level in transgenic mouse expressing human ApoA1 at 100 mg/kg administered qd through oral gavage measured after 10 days relative to vehicle control; assay type: functional
Syrian golden hamster [9] = assay: Decrease in liver triglyceride level in high fat-diet fed syrian golden hamster model of dyslipidemia at 10 mg/kg administered qd through oral gavage measured after 21 days by FPLC analysis relative to control; assay type: functional, Mesocricetus auratus; design: scale not given: the % may be the effect or the level left
Syrian golden hamster [10] = assay: Decrease in liver triglyceride level in high fat-diet fed syrian golden hamster model of dyslipidemia at 3 mg/kg administered qd through oral gavage measured after 21 days by FPLC analysis relative to control; assay type: functional, Mesocricetus auratus; design: scale not given: the % may be the effect or the level left
Syrian golden hamster [11] = assay: Decrease in liver triglyceride level in high fat-diet fed syrian golden hamster model of dyslipidemia at 1 mg/kg administered qd through oral gavage measured after 21 days by FPLC analysis relative to control; assay type: functional, Mesocricetus auratus; design: scale not given: the % may be the effect or the level left
Syrian golden hamster [12] = assay: Decrease in liver cholesterol level in high fat-diet fed syrian golden hamster model of dyslipidemia at 10 mg/kg administered qd through oral gavage measured after 21 days by FPLC analysis relative to control; assay type: functional, Mesocricetus auratus; design: scale not given: the % may be the effect or the level left
Syrian golden hamster [13] = assay: Decrease in liver cholesterol level in high fat-diet fed syrian golden hamster model of dyslipidemia at 3 mg/kg administered qd through oral gavage measured after 21 days by FPLC analysis relative to control; assay type: functional, Mesocricetus auratus; design: scale not given: the % may be the effect or the level left
Syrian golden hamster [14] = assay: Decrease in liver cholesterol level in high fat-diet fed syrian golden hamster model of dyslipidemia at 1 mg/kg administered qd through oral gavage measured after 21 days by FPLC analysis relative to control; assay type: functional, Mesocricetus auratus; design: scale not given: the % may be the effect or the level left
Syrian golden hamster [15] = assay: Decrease in plasma LDL cholesterol level in high fat-diet fed syrian golden hamster model of dyslipidemia administered qd through oral gavage measured after 21 days by FPLC analysis relative to control; assay type: functional, organism-based; conditions: Mesocricetus auratus
Syrian golden hamster [16] = assay: Decrease in plasma LDL cholesterol level in high fat-diet fed syrian golden hamster model of dyslipidemia at 10 mg/kg administered qd through oral gavage measured after 21 days by FPLC analysis relative to control; assay type: functional, Mesocricetus auratus; design: scale not given: the % may be the effect or the level left
Syrian golden hamster [17] = assay: Decrease in plasma LDL cholesterol level in high fat-diet fed syrian golden hamster model of dyslipidemia at 3 mg/kg administered qd through oral gavage measured after 21 days by FPLC analysis relative to control; assay type: functional, Mesocricetus auratus; design: scale not given: the % may be the effect or the level left
Syrian golden hamster [18] = assay: Decrease in plasma triglyceride level in high fat-diet fed syrian golden hamster model of dyslipidemia at 10 mg/kg administered qd through oral gavage measured after 21 days by FPLC analysis relative to control; assay type: functional, Mesocricetus auratus; design: scale not given: the % may be the effect or the level left
Syrian golden hamster [19] = assay: Decrease in plasma triglyceride level in high fat-diet fed syrian golden hamster model of dyslipidemia at 3 mg/kg administered qd through oral gavage measured after 21 days by FPLC analysis relative to control; assay type: functional, Mesocricetus auratus; design: scale not given: the % may be the effect or the level left
Syrian golden hamster [20] = assay: Decrease in plasma triglyceride level in high fat-diet fed syrian golden hamster model of dyslipidemia at 1 mg/kg administered qd through oral gavage measured after 21 days by FPLC analysis relative to control; assay type: functional, Mesocricetus auratus; design: scale not given: the % may be the effect or the level left
Syrian golden hamster [21] = assay: Effect on plasma LDL cholesterol level in high fat-diet fed syrian golden hamster model of dyslipidemia at 1 mg/kg administered qd through oral gavage measured after 21 days by FPLC analysis (reference value: 91.7 +/- 8.1 mg/dl); assay type: functional, Mesocricetus auratus
Syrian golden hamster [22] = assay: Increase in liver cholesterol level in high fat-diet fed syrian golden hamster model of dyslipidemia at 1 mg/kg administered qd through oral gavage measured after 21 days by FPLC analysis relative to control; assay type: functional, Mesocricetus auratus
Syrian golden hamster [23] = assay: Decrease in liver triglyceride level in high fat-diet fed syrian golden hamster model of dyslipidemia administered qd through oral gavage measured after 21 days by FPLC analysis; assay type: functional, organism-based; conditions: Mesocricetus auratus

Structure (SMILES)	Intrinsic activity [1] [%]	pEC50 [2]	pEC50 [3]	Ratio EC50 (HEK293)	also measured
COC(=O)N(CC(=O)O)[C@@H](C)c1cccc(OCc2nc(-c3ccc(Cl)cc3)oc2C)c1	> 50	8.07	5.54	332	pIC50 [4]: 6.17; pIC50 [5]: < 4.82
COC(=O)N(CC(=O)O)Cc1cc(OCc2nc(-c3ccc(S(C)(=O)=O)cc3)oc2C)ccc1F	> 50	< 5.60	< 4.60		
COC(=O)N(CC(=O)O)Cc1cc(OCc2nc(-c3ccc(C(C)(C)C)cc3)oc2C)ccc1F	> 50	8.57	6.38	154	
COC(=O)N(CC(=O)O)Cc1cc(F)cc(OCc2nc(-c3ccc(Cl)cc3)oc2C)c1	> 50	7.74	5.55	157	pIC50 [4]: 5.87; pIC50 [5]: < 4.82
COC(=O)N(CC(=O)O)Cc1cc(OCc2nc(-c3ccccc3)oc2C)ccc1F	> 50	7.23	5.07	146	
CC(C)OC(=O)C(C)(C)Oc1ccc(C(=O)c2ccc(Cl)cc2)cc1 [FENOFIBRATE]					Activity (Mus musculus [6]): 665%; Activity (Mus musculus [7]): 32.5%; Activity (Mus musculus [8]): 88%
COC(=O)N(CC(=O)O)Cc1ccc(F)c(OCc2nc(-c3ccc(Cl)cc3)oc2C)c1	> 50	7.03	5.04	98	pIC50 [4]: 5.81; pIC50 [5]: < 4.82
COC(=O)N(CC(=O)O)Cc1cccc(OCc2nc(-c3ccc(Cl)cc3)oc2C)c1					Activity (Syrian golden hamster [9]): 23%; Activity (Syrian golden hamster [10]): 17%; Activity (Syrian golden hamster [11]): 6%; Activity (Syrian golden hamster [12]): 40.8%; Activity (Syrian golden hamster [13]): 15.4%; Activity (Syrian golden hamster [14]): -22%; Activity (Syrian golden hamster [15]): Dose-dependent effect; Activity (Syrian golden hamster [16]): 60%; Activity (Syrian golden hamster [17]): 46%; Activity (Syrian golden hamster [18]): 77%; Activity (Syrian golden hamster [19]): 45%; Activity (Syrian golden hamster [20]): 40%; Activity (Syrian golden hamster [21]): 89.3 mg/dL; Activity (Syrian golden hamster [22]): 22%; Activity (Syrian golden hamster [23]): Dose-dependent effect
COC(=O)N(CC(=O)O)Cc1cc(OCc2nc(-c3ccc(C(F)(F)F)cc3)oc2C)ccc1F	> 50	8.44	5.69	566	

Second part, led by results:

Intrinsic activity [1] [%]	pEC50 [2]	pEC50 [3]	Structure (SMILES)	Ratio EC50 (HEK293)	also measured
> 50	8.64	5.82	Cc1oc(-c2ccc(Cl)cc2)nc1COc1ccc(F)c(CN(CC(=O)O)C(=O)OCC(C)C)c1	666	
> 50	8.55	5.66	COC(=O)N(CC(=O)O)Cc1cc(OCc2nc(-c3ccc(C)cc3)oc2C)ccc1F	787	
> 50	8.37	5.62	COC(=O)N(CC(=O)O)Cc1cc(OCc2nc(-c3ccc(OC(F)(F)F)cc3)oc2C)ccc1F	556	
> 50	7.97	5.36	Cc1oc(-c2ccc(Cl)cc2)nc1COc1ccc(F)c(CN(CC(=O)O)C(=O)OCCCF)c1	413	
> 50	8.47	5.70	CCCOC(=O)N(CC(=O)O)Cc1cc(OCc2nc(-c3ccc(Cl)cc3)oc2C)ccc1F	594	
> 50	7.84	5.00	COC(=O)N(CC(=O)O)Cc1cc(OCc2nc(-c3ccc(F)cc3)oc2C)ccc1F	691	
> 50	8.17	5.96	COc1ccc(OC(=O)N(CC(=O)O)Cc2cc(OCc3nc(-c4ccc(Cl)cc4)oc3C)ccc2F)cc1	160	
> 50	8.25	5.90	Cc1ccc(OC(=O)N(CC(=O)O)Cc2cc(OCc3nc(-c4ccc(Cl)cc4)oc3C)ccc2F)cc1	224	
> 50	8.40	5.37	CCOC(=O)N(CC(=O)O)Cc1cc(OCc2nc(-c3ccc(Cl)cc3)oc2C)ccc1F	1080	
> 50	8.55	5.91	CCCCOC(=O)N(CC(=O)O)Cc1cc(OCc2nc(-c3ccc(Cl)cc3)oc2C)ccc1F	435	
